Like-named read-outs stand apart in the source and are kept apart here.

Assay in all cases: biochemical
Holding throughout (parameters): Eurofins KinaseProfiler full panel at Km ATP, residual kinase activity (%) relative to DMSO

The target of one assay is VRK2(h) (Homo sapiens, UniProt Q86Y07). The method, boiled down: (§1)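 Radiometric kinase activity assays were run with ATP at Km and compounds at 10 µM, and remaining activity (%) was reported. A separate competitive binding screen measured DNA-tagged kinase displaced from immobilized active-site ligands by qPCR, giving percent kinase still bound at 10 µM compound in DMSO.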
VRK2(h), sequence (Q86Y07 whole entry): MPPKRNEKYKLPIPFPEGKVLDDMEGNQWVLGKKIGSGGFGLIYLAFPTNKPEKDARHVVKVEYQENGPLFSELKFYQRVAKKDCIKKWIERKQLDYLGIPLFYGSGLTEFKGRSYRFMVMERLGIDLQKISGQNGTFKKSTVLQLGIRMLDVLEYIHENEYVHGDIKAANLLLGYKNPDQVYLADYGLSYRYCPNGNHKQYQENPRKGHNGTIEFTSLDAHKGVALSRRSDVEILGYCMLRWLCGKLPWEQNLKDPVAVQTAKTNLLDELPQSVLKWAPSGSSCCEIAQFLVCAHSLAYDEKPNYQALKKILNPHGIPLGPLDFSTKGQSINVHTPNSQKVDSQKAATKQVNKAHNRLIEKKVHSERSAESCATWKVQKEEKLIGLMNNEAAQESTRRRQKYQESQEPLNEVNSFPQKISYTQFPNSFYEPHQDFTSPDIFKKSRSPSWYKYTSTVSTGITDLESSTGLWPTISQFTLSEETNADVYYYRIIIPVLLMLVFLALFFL

Another assay deals with T1, CaMKIß(h) (Homo sapiens, UniProt Q6P2M8).
T1 construct: gene PNCK
T1 sequence (Q6P2M8 whole entry): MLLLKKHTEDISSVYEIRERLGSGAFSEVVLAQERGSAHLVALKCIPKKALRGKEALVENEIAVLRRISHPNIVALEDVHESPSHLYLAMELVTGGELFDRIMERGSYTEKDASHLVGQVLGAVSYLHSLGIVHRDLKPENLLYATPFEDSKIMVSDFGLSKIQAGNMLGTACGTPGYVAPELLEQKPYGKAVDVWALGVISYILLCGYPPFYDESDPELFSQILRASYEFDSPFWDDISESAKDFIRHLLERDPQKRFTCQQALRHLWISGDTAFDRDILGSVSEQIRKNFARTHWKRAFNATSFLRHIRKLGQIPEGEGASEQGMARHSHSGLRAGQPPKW
The gist of the method: as §1

A further assay addresses BTK(h) (Homo sapiens, UniProt Q06187). The gist of the method: as §1
In the next assay the target is T2, Flt3(D835Y)(h) (Homo sapiens, UniProt P36888, D835Y).
T2 sequence (P36888 1-993 D835Y): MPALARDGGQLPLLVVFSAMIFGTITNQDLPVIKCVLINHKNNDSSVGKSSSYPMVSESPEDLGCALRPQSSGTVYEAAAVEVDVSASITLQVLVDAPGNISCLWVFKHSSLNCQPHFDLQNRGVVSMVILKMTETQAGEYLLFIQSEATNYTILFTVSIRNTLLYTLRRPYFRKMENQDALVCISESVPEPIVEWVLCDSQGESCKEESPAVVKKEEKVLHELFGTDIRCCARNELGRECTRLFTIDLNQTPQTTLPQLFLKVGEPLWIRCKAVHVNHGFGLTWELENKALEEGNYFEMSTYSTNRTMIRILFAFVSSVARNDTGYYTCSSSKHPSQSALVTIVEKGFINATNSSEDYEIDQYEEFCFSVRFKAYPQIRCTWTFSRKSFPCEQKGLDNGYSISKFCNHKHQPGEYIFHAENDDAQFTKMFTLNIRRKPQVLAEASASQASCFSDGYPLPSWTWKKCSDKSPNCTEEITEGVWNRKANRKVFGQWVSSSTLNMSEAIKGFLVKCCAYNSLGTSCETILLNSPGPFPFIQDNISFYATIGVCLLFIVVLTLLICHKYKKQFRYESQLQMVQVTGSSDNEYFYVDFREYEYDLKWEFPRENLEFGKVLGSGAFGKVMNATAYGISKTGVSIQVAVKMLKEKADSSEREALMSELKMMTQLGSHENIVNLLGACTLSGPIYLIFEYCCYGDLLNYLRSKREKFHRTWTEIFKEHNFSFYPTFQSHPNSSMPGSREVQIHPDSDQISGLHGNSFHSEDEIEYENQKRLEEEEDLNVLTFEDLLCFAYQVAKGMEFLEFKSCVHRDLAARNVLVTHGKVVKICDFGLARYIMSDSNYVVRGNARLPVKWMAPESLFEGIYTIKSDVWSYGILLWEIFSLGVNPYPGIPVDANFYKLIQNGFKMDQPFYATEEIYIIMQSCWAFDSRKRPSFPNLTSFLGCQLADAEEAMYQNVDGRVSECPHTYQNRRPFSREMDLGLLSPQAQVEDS
The gist of the method:
as §1

Another assay has as its target CDK3/cyclinE(h) (Homo sapiens, UniProt Q00526). The method, boiled down: as §1
A further assay has as its target DYRK1B(h) (Homo sapiens, UniProt Q9Y463). The method, boiled down:
as §1

Another assay concerns the target MYLK2(h) (Homo sapiens, UniProt Q9H1R3). The method, boiled down:
as §1

The next assay concerns the target Fgr(h) (Homo sapiens, UniProt P09769). The method, boiled down:
as §1

The target of another assay is NEK7(h) (Homo sapiens, UniProt Q8TDX7). The method, boiled down:
as §1

The next assay has as its target T3, TRB2(h) (Homo sapiens, UniProt Q92519).
T3 construct: gene TRIB2
T3 sequence (Q92519 1-343): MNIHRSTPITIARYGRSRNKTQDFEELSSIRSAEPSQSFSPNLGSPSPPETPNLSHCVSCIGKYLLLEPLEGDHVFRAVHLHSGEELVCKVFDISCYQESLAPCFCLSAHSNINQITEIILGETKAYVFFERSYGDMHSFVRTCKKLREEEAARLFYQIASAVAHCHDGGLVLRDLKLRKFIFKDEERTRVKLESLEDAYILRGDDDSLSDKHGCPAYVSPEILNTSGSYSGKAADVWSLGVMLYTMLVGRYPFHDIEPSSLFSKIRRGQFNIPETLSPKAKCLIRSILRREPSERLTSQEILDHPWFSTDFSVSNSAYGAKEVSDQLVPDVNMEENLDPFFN
The method, boiled down:
as §1

The target of a further assay is PAK1(h) (Homo sapiens, UniProt Q13153). The gist of the method:
as §1

[1] abbreviates: read-out: Residual activity (%) Spautin-1 5aa.
Where [2] appears, read: read-out: Residual activity (%) 5as.
The mark [3] stands for this setting: read-out: Residual activity (%) 5at.
[4] abbreviates: read-out: Residual activity (%) 5ay.

Fgr(h), sequence (P09769 whole entry): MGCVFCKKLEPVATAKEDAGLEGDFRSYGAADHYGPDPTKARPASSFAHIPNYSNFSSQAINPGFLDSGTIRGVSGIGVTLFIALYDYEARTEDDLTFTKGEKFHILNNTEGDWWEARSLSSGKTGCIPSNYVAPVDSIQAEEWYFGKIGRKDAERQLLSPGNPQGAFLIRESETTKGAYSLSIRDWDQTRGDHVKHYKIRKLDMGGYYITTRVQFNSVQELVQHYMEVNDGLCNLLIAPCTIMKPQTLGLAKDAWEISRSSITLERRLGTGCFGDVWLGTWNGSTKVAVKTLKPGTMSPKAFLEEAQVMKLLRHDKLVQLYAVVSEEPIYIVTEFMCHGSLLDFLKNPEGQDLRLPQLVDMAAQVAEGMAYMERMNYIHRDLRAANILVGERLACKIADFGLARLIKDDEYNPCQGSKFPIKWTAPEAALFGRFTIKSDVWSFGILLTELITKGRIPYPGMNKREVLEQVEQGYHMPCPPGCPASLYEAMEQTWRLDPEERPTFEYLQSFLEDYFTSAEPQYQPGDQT
CDK3/cyclinE(h), sequence (Q00526 whole entry): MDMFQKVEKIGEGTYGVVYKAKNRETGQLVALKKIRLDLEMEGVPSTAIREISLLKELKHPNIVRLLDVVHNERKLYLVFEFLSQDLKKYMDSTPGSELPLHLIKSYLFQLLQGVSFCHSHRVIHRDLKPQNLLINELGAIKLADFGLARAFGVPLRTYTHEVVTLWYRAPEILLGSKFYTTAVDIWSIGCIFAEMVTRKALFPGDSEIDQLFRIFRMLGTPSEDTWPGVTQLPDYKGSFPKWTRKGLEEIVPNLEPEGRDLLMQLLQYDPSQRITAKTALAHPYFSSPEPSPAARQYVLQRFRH
CDK3/cyclinE(h), sequence (P24864 whole entry partner): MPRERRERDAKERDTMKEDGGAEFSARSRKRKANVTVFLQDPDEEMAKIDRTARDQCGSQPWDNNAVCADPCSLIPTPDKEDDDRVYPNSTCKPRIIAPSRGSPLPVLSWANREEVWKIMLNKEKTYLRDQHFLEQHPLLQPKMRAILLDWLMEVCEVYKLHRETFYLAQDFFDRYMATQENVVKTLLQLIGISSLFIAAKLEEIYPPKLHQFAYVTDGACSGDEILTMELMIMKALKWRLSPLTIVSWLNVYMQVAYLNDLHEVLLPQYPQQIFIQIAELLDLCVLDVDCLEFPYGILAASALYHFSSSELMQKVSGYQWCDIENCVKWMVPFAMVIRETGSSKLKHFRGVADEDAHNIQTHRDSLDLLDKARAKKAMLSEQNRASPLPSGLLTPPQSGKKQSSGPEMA
NEK7(h), sequence (Q8TDX7 whole entry): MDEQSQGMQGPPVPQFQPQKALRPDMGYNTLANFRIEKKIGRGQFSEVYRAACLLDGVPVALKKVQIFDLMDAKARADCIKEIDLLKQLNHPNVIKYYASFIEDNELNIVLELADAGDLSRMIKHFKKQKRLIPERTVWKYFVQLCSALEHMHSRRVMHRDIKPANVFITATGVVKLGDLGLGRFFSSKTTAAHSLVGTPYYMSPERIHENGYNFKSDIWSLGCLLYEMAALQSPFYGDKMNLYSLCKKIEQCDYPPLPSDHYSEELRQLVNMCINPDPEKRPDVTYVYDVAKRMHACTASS
DYRK1B(h), sequence (Q9Y463 whole entry): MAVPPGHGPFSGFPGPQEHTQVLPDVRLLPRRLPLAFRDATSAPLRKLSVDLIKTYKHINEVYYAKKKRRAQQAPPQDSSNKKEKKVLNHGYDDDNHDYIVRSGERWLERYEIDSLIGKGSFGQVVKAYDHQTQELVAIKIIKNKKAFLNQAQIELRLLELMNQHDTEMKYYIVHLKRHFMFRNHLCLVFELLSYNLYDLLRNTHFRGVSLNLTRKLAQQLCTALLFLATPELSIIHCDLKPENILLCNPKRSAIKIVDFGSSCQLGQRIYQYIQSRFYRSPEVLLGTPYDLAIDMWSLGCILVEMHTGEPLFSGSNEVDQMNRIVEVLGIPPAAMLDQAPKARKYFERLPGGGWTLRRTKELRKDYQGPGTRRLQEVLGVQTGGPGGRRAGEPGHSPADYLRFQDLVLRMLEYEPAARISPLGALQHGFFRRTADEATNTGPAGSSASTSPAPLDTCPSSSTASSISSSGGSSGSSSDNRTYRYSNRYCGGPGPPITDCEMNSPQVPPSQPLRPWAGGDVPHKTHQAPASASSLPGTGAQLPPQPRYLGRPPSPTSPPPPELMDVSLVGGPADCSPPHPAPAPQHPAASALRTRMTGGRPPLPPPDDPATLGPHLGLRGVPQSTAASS
BTK(h), sequence (Q06187 whole entry): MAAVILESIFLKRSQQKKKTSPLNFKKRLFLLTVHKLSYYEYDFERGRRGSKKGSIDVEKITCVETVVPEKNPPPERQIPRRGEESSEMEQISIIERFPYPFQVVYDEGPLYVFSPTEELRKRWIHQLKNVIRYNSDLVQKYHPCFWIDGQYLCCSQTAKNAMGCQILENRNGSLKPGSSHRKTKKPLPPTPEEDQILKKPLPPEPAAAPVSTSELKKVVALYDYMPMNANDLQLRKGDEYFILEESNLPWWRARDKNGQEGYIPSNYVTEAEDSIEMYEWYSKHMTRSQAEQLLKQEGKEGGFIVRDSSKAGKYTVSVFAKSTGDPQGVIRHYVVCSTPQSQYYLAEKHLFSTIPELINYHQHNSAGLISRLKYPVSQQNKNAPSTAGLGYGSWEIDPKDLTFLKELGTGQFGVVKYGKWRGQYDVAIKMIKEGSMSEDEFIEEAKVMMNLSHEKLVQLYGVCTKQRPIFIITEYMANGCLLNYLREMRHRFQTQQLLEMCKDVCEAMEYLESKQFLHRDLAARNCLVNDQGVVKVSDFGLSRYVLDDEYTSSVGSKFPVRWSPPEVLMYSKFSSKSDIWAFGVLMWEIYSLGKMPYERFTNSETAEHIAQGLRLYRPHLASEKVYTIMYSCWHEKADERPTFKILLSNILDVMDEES
PAK1(h), sequence (Q13153 whole entry): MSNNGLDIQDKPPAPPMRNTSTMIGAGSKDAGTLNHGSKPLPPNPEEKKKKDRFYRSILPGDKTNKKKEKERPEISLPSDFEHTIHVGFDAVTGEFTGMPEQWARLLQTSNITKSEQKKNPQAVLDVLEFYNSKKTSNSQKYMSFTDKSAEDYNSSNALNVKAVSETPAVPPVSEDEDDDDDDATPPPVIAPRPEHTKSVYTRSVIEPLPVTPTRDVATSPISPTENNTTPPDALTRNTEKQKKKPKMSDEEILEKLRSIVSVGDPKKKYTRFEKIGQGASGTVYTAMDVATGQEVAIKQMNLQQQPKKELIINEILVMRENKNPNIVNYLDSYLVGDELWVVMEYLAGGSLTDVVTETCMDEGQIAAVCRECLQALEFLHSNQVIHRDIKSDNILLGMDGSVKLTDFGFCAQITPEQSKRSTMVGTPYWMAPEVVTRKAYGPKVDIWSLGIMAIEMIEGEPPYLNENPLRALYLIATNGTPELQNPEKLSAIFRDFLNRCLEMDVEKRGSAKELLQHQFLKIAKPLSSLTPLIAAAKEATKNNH
MYLK2(h), sequence (Q9H1R3 whole entry): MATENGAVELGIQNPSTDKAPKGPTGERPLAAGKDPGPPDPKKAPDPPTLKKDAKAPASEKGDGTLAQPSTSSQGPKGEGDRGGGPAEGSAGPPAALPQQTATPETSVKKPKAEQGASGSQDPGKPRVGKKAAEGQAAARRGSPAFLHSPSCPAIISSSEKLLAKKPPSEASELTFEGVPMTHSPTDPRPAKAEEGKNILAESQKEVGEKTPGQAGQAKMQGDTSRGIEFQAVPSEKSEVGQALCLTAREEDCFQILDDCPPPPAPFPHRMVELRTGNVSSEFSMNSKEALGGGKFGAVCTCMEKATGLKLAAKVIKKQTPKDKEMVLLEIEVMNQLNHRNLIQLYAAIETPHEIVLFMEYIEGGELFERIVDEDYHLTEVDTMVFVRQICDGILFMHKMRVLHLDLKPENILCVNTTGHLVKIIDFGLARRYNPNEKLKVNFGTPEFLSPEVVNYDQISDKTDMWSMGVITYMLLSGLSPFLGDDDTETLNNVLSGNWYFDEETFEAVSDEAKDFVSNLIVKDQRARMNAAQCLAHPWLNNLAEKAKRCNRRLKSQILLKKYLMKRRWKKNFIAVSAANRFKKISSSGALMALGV

Consider `Fc1ccc(CNc2ncnc3ccc(F)cc23)cc1` [5aa, 6-Fluoro-N-(4-fluorobenzyl)-4-Quinazolinamine], for which the remaining activity at 10 µM on VRK2(h) (setting [1]) turned out to be 91%; on CaMKIß(h) (setting [1]), 85%; on BTK(h) (setting [1]), 123%; on Flt3(D835Y)(h) (setting [1]) it was 91%; at CDK3/cyclinE(h) (setting [1]) it was 93%; on DYRK1B(h) (setting [1]), 88%. The remaining activity at 10 µM on MYLK2(h) (setting [1]) was 97%; on Fgr(h) (setting [1]), 112%; on NEK7(h) (setting [1]), 95%; on TRB2(h) (setting [1]), 69%; on PAK1(h) (setting [1]), 94%.

As to `Fc1ccc(CCNc2ncnc3ccc(F)cc23)cc1` [5as, 6-Fluoro-N-[2-(4-Fluorophenyl)Ethyl]-4-Quinazolinamine], the remaining activity at 10 µM is 99% at VRK2(h) (setting [2]); 84% at CaMKIß(h) (setting [2]); 113% at BTK(h) (setting [2]); 87% on Flt3(D835Y)(h) (setting [2]); 105% at CDK3/cyclinE(h) (setting [2]); 82% on DYRK1B(h) (setting [2]). Also, the remaining activity at 10 µM at MYLK2(h) (setting [2]) stood at 80%; on Fgr(h) (setting [2]), 114%; on NEK7(h) (setting [2]) it was 74%; on TRB2(h) (setting [2]), 65%; at PAK1(h) (setting [2]) it was 81%.

In the case of `Fc1ccc2ncnc(NCCc3ccc(Cl)cc3)c2c1` [5at, N-[2-(4-Chlorophenyl)Ethyl]-6-Fluoro-4-Quinazolinamine], the remaining activity at 10 µM on VRK2(h) (setting [3]) amounted to 94%; on CaMKIß(h) (setting [3]), 81%; on BTK(h) (setting [3]) it was 96%; on Flt3(D835Y)(h) (setting [3]), 80%; at CDK3/cyclinE(h) (setting [3]), 107%; at DYRK1B(h) (setting [3]), 92%. Moreover, the remaining activity at 10 µM at MYLK2(h) (setting [3]) was 93%; at Fgr(h) (setting [3]), 95%; on NEK7(h) (setting [3]), 83%; at TRB2(h) (setting [3]), 60%; on PAK1(h) (setting [3]), 90%.

Regarding `COc1ccc2ncnc(Nc3cccc(F)c3)c2c1` [5ay, N-(3-Fluorophenyl)-6-Methoxy-4-Quinazolinamine], the remaining activity at 10 µM on VRK2(h) (setting [4]) was determined as 88%; at CaMKIß(h) (setting [4]) it was 92%; at BTK(h) (setting [4]) it was 126%; on Flt3(D835Y)(h) (setting [4]), 49%; at CDK3/cyclinE(h) (setting [4]), 101%; on DYRK1B(h) (setting [4]), 53%. In addition, the remaining activity at 10 µM on MYLK2(h) (setting [4]) was found to be 89%; at Fgr(h) (setting [4]), 90%; at NEK7(h) (setting [4]) it was 76%; on TRB2(h) (setting [4]) it was 31%; on PAK1(h) (setting [4]), 97%.
